The values below come from the NIST ThermoML archive (doi:10.1021/je300810p).

The conditions of data set [1]: Liquid; for mass density: 101.33 kPa, Pycnometric method.
A short description of data set [2]: refractive index (Na D-line) (dimensionless). To be noted: 101.33 kPa, Liquid, Standard Abbe refractometry.

± gives the expanded uncertainty stated by the source.

Regarding `CC=O` [ethanal], the mass density in data set [1] (289.15 K) worked out at 788.02 ± 0.36 kg/m3. Also, the “vapor or sublimation pressure” value in data set [1] (293.91 K) came out at 101.33 ± 2.6 kPa. Also, in data set [2] (293.15 K), the refractive index is reported as 1.3328 ± 0.0025.

Regarding `CC(=O)O` [acetic acid], the mass density in data set [1] (298.15 K) turned out to be 1049.42 ± 0.45 kg/m3. The “vapor or sublimation pressure” value in data set [1] (391.43 K) amounted to 101.33 ± 3.4 kPa. Also, in data set [2] (298.15 K), the refractive index stood at 1.3716 ± 0.0025.

For the compound `CCO` [ethanol], in data set [1] (298.15 K), the mass density is listed as 784.88 ± 0.36 kg/m3. Further, in data set [1] (351.46 K), the “vapor or sublimation pressure” value turned out to be 101.33 ± 2.6 kPa. For the same compound, the refractive index in data set [2] (298.15 K) worked out at 1.3592 ± 0.0025.

What is called mass density is the mass of a sample divided by its volume. What is called vapor or sublimation pressure is the equilibrium pressure above the liquid or solid. By refractive index is commonly meant a measure of how strongly the sample bends light.
